Reference: patent publication US11649269B2, “Bifunctional compounds comprising insulin peptides and EGF(A) peptides” (Novo Nordisk A/S, priority 2018, dated 2023)

What was measured:
primary rat adipocytes = test: Lipogenesis in rat adipocytes; format: cell-based
Experimental: Lipogenesis in Rat Adipocytes
As a measure of in vitro potency of the insulins of the invention, lipogenesis can be used. Primary rat adipocytes are isolated from the epididymale fat pads and incubated with 3H-glucose in buffer containing e.g. 1% fat free HSA and either standard (human insulin, HI) or insulin of the invention. The labelled glucose is converted into extractable lipids in a concentration dependent way, resulting in full concentration response curves. The result is expressed as relative potency (%) with 95% confidence limits of insulin of the invention compared to standard (HI).

PCSK9 = target: T1, PCSK9 (Homo sapiens, UniProt Q8NBP7); test: PCSK9-LDL-R binding competitive ELISA; settings: apparent binding affinity
T1 construct: purchased BioSite/BPSBioscience (PCSK9); R & D systems (rhLDL-R) 71304 (PCSK9); 2148-LD (rhLDL-R); host or cells: rhLDL-R: NSO-derived

HepG2 cells = test: LDL uptake assay in HepG2 cells in the presence of PCSK9; format: cell-based, human; settings: PCSK9 10 ug/mL
[1] = target: T2, human insulin receptor (IR), solubilised human IR-A (Homo sapiens, UniProt P06213); test: Insulin receptor affinity on solubilised receptors, competition binding SPA, 0% HSA; settings: Table 3, example numbers, binding affinity relative to human insulin
T2 construct: baby hamster kidney (BHK) cells overexpressing the IR-A holoreceptor; made in house; host or cells: baby hamster kidney (BHK) cells overexpressing IR-A; detergent-solubilised, WGA semipurified

[2] = target: T2, human insulin receptor (IR), solubilised human IR-A; test: Insulin receptor affinity SPA, related assay with 1.5% HSA in binding buffer; settings: Table 3, example numbers, binding affinity relative to human insulin
[3] = in vivo
[4] = Table 3, example numbers, potency relative to human insulin
[5] = Table 4, labels are comparator compound numbers, relative to human insulin
[6] = Table 5, example numbers, Ki converted from IC50
[7] = Table 6, labels are comparator compound numbers

Substance	Lipogenesis 1% HSA (% rel to HI) (primary rat adipocytes; [4])	Lipogenesis 1% HSA (% rel to HI) (primary rat adipocytes; [5])	other results
EGF(A)(301L, 309R, 312E, 321E)-[GAQP]2-Insulin(B3E, B29K(eicosanedioyl-gGlu-2×OEG), desB30) [Example 6]	0.06 % rel to HI	0.06 % rel to HI	Ki (PCSK9; [6]): 2.49 nM
EGF(A)(301L, 309R, 312E, 321E)-[GAQP]2-Insulin(B3E, B29K(hexadecanedioyl-gGlu-2×OEG), desB30) [Example 1]	0.49 % rel to HI	0.14 % rel to HI	
EGF(A)(301L, 309R, 312E, 321E)-[GAQP]2-Insulin(B3E, B29K(octadecanedioyl-gGlu-2×OEG), desB30) [Example 3]	0.16 % rel to HI	0.06 % rel to HI	
EGF(A)(301L, 309R, 312E, 321E)-[GAQP]2-Insulin(B3E, B29K(octadecanedioyl-gGlu-OEG), desB30) [Example 5]		0.44 % rel to HI	
EGF(A)(301L, 309R, 312E, 321E)-[GAQP]2-Insulin(B29K(eicosanedioyl-gGlu-2×OEG), desB30) [Example 7]		0.18 % rel to HI	Ki (PCSK9; [7]): 1.74 nM
EGF(A)(301L, 309R, 312E, 321E)-[GAQP]2-Insulin(B29K(octadecanedioyl-gGlu-2×OEG), desB30) [Example 4]	0.13 % rel to HI	0.07 % rel to HI	
EGF(A)(301L, 309R, 312E, 321E)-[GAQP]3-Insulin(A14E, B29K(octadecanedioyl-gGlu-2×OEG), desB30) [Example 10]	0.12 % rel to HI		EC50 (HepG2 cells; [7]): 152 nM
EGF(A)(301L, 309R, 312E, 321E)-[GAQP]4-Insulin(A14E, B29K(octadecanedioyl-gGlu-2×OEG), desB30) [Example 11]	0.12 % rel to HI		
EGF(A)(301L, 309R, 312E, 321E)-[GAQP]4-Insulin(B29K(octadecanedioyl-gGlu-2×OEG), desB30) [Example 12]	0.14 % rel to HI		
EGF(A)(301L, 309R, 312E, 321E)-[GAQP]6-Insulin(A14E, B29K(eicosanedioyl-gGlu-2×OEG), desB30 [Example 16]	0.08 % rel to HI		hIR-A 0% HSA (% rel to HI) [1]: 4.77 % rel to HI; hIR-A 1.5% HSA (% rel to HI) [2]: 0.26 % rel to HI; Ki (PCSK9; [6]): 1.75 nM
EGF(A)(301L, 309R, 312E, 321E)-[GAQP]6-Insulin(A14E, B29K(octadecanedioyl-gGlu-2×OEG), desB30) [Example 13]	0.11 % rel to HI		hIR-A 0% HSA (% rel to HI) [1]: 5.53 % rel to HI; hIR-A 1.5% HSA (% rel to HI) [2]: 0.35 % rel to HI; Ki (PCSK9; [6]): 1.92 nM; EC50 (HepG2 cells; Table 5, example numbers): 170 nM; Rat iv Mean Residence Time MRT [3]: 13.56 h
EGF(A)(301L, 309R, 312E, 321E)-[GAQP]6-Insulin(A14E, B29K(octadecanedioyl-gGlu-OEG), desB30) [Example 15]	0.08 % rel to HI		hIR-A 0% HSA (% rel to HI) [1]: 5.70 % rel to HI; hIR-A 1.5% HSA (% rel to HI) [2]: 0.23 % rel to HI; Ki (PCSK9; [6]): 2.07 nM
EGF(A)(301L, 309R, 312E, 321E)-[GAQP]6-Insulin(B29K(octadecanedioyl-gGlu-2×OEG), desB30) [Example 14]	0.10 % rel to HI		
EGF(A)(301L, 309R, 312E, 321E)-[GAQP]10-Insulin(B29K(octadecanedioyl-gGlu-2×OEG), desB30) [Example 2]		0.06 % rel to HI	
EGF(A)(301L, 309R, 312E, 321E)-[GAQP]12-Insulin(B29K(octadecanedioyl-gGlu-2×OEG), desB30) [Example 18]	0.09 % rel to HI		
EGF(A)(301L, 309R, 312E, 321E)-[GAQP]13-Insulin(B29K(octadecanedioyl-gGlu-2×OEG), desB30) [Example 9]	0.12 % rel to HI		
EGF(A)(301L, 309R, 312E, 321E)-[GAQP]19-Insulin(A14E, B29K(eicosanedioyl-gGlu-2×OEG), desB30) [Example 23]	0.02 % rel to HI		hIR-A 0% HSA (% rel to HI) [1]: 2.89 % rel to HI; hIR-A 1.5% HSA (% rel to HI) [2]: 0.14 % rel to HI; EC50 (HepG2 cells; Table 5, example numbers): 126 nM
EGF(A)(301L, 309R, 312E, 321E)-[GAQP]19-Insulin(B29K(eicosanedioyl-gGlu-2×OEG), desB30) [Example 22]	0.06 % rel to HI		
EGF(A)(301L, 309R, 312E, 321E)-[GAQP]19-Insulin(B29K(octadecanedioyl-gGlu-2×OEG), desB30) [Example 19]	0.09 % rel to HI		
EGF(A)(301L, 309R, 312E, 321E)-[GAQP]119-Insulin(A14E, B29K(octadecanedioyl-gGlu-2×OEG), desB30) [Example 20]	0.03 % rel to HI		EC50 (HepG2 cells; Table 5, example numbers): 123 nM
EGF(A)(301L, 309R, 312E, 321E)-[GAQP]119-Insulin(B3E, B29K(eicosanedioyl-gGlu-2×OEG), desB30) [Example 24]	0.06 % rel to HI		
EGF(A)(301L, 309R, 312E, 321E)-[GAQP]119-Insulin(B3E, B29K(octadecanedioyl-gGlu-2×OEG), desB30) [Example 21]	0.07 % rel to HI		
EGF(A)(301L, 309R, 312E, 321E)-[GQAP]2-Insulin(B29K(octadecanedioyl-gGlu-2×OEG), desB30) [Example 8]	0.14 % rel to HI	0.30 % rel to HI	
